Consider 2 compounds from ChEMBL document CHEMBL1136331, “Photoregulation of deacylation rate of acyl trypsin derived from photoresponsive inverse substrate” (Bioorg Med Chem Lett, 2003).

Molecules are shown by their SMILES.

Experiment [1] can be described thus: Kinetic parameter for rate constant of deacylation step (k3) was determined.
Experiment [2] in a line: Kinetic parameter for rate constant of acylation step (k2) was determined.
A short description of experiment [3]: Ratio of kinetic parameter (k2) to that of kinetic parameter(Ks).

`N=C(N)Nc1ccc(OC(=O)c2ccc(/N=N/c3ccccc3)cc2)cc1` displayed a k3 in experiment [1] of 0.000378 s⁻¹. For the same compound, the k2 in experiment [2] is 1.06 s⁻¹. Besides, the k2/Ks in experiment [3] is 151000 M⁻¹ s⁻¹.
`N=C(N)Nc1ccc(OC(=O)c2ccc(/N=N\c3ccccc3)cc2)cc1` came in with a k3 in experiment [1] of 0.000702 s⁻¹. Moreover, in experiment [2], the k2 worked out at 7.75 s⁻¹. The k2/Ks in experiment [3] worked out at 164000 M⁻¹ s⁻¹.
